Molecules are shown by their SMILES.

By IC50 is commonly meant the concentration needed to halve the response being measured. The inhibition is the share of the control response that was lost under treatment. Lower therefore signals little suppression.

One assay concerns the target PIK3CA (UniProt P42336). The experiment in a line: PI 3-Kinase Inhibition. Conditions: for inhibition: concentration not given here.
Another assay relates to PIK3CA (rat). Briefly: Hexosaminidase Secretion Inhibition (RBL-2H3 cells). The settings on record: rbl2h3.

Chain of PIK3CA (P42336 whole entry, looked up): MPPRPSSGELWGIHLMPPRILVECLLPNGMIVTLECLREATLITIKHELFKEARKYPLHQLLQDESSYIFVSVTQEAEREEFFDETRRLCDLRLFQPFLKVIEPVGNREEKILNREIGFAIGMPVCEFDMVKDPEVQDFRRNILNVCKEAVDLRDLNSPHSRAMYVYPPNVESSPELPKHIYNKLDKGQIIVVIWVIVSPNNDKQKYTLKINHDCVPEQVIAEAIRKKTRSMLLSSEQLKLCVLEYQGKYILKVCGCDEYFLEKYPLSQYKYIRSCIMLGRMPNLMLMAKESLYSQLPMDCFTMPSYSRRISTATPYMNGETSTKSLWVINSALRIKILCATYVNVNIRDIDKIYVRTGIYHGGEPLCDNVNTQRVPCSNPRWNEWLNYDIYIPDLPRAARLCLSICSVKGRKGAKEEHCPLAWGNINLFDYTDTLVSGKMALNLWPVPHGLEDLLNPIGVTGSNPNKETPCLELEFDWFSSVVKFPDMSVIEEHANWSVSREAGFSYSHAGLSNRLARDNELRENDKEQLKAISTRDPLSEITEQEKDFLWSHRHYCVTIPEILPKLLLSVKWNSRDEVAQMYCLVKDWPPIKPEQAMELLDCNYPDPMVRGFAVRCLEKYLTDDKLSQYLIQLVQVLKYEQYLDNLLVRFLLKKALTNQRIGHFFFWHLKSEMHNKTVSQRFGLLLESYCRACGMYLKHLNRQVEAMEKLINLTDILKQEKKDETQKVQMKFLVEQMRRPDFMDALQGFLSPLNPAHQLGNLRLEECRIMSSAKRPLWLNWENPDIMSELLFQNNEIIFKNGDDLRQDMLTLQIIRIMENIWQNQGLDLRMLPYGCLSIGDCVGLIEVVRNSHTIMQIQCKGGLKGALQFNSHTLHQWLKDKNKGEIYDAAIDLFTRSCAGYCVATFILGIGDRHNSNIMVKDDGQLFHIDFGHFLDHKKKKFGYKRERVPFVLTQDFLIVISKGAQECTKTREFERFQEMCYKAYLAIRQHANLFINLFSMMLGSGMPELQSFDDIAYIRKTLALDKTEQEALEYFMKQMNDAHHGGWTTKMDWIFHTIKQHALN

Regarding `CCCCCCCCCCCCCCCC(=O)OC[C@@H](COP(=O)(O)O[C@H]1[C@H](O)[C@@H](O)[C@H](O)[C@@H](CO)[C@H]1O)OC(=O)CCCCCCCCCCCCCCC`, at PIK3CA, the IC50 turned out to be 35 µM and the inhibition was 85%.

The compound `CCCCCCCCCCCCCCCC(=O)OC[C@@H](COP(=O)(O)O[C@H]1[C@H](O)[C@@H](O)[C@H](O)[C@@H](CBr)[C@H]1O)OC(=O)CCCCCCCCCCCCCCC` returned an inhibition at PIK3CA of 60%.

The compound `CCCCCCCCCCCCCCCC(=O)OC[C@@H](COP(=O)(O)O[C@H]1[C@H](O)[C@@H](O)[C@H](O)[C@@H](CI)[C@H]1O)OC(=O)CCCCCCCCCCCCCCC` came in with an inhibition against PIK3CA of 60%.

As to `O=c1cc(N2CCOCC2)oc2c(-c3ccccc3)cccc12`, the IC50 in the assay on PIK3CA (rat) was 1.8 µM.

In the case of `CCCCCCCCCCCCCCCC(=O)OC[C@@H](COP(=O)(O)O[C@H]1[C@H](O)[C@@H](O)[C@H](O)[C@@H](CN)[C@H]1O)OC(=O)CCCCCCCCCCCCCCC`, the IC50 at PIK3CA stood at 20 µM; in the assay on PIK3CA (rat), 17 µM. Further, the inhibition against PIK3CA is greater than 98%.

Consider `CCCCCCCCCCCCCCCC(=O)OC[C@@H](COP(=O)(O)O[C@H]1[C@H](O)[C@@H](O)[C@H](O)[C@@H](CCl)[C@H]1O)OC(=O)CCCCCCCCCCCCCCC`, for which, at PIK3CA, the inhibition is 60%.

Regarding `CCCCCCCCCCCCCCCC(=O)OC[C@@H](COP(=O)(O)O[C@H]1[C@H](O)[C@@H](O)[C@H](O)[C@@H](CF)[C@H]1O)OC(=O)CCCCCCCCCCCCCCC`, on PIK3CA, the inhibition is 60%.

(Values after the Kinase Knowledgebase extract (Sharma et al. 2016).)
